# Assay results taken from publication PMC11101253, “Pharmacokinetic Properties of Baitouweng Decoction in Bama Miniature Pigs: Implications for Clinical Application in Humans” (International Journal of Analytical Chemistry, 2024).
# Read-outs that look alike come from different tables or passages of the source.
# How the values were obtained:
# in vivo = assay: in vivo
# Procedure: The LC-MS analysis was conducted using a Waters Acquity UPLC I-Class system (Waters, USA) coupled with a Xevo TQ-XS mass spectrometer equipped with a heated electrospray ionization source. Chromatographic separation was carried out on an Acquity UPLC HSS T3 C18 column (2.1 mm × 50 mm, 1.8 μm) from Waters, USA, with a flow rate of 0.4 mL/min and a column oven temperature of 40°C. The mobile phase consisted of 0.1% aqueous formic acid (A) and acetonitrile (B). The gradient elution program was as follows: 0–2.0 min, 10%–60% B; 2.0–2.2 min, 60%–95% B; 2.2–3.2 min, 95% B; 3.2–3.5 min, 95%–10% B; and 3.5–5.5 min, 10% B. Mass spectrometric detection was conducted using both positive and negative ionization modes. The source parameters used were as follows: a spray voltage of 1.00 KV, capillary temperature set at 500°C, desolvation flow maintained at 1000 L/h, cone gas (nitrogen) flow at 150 L/h, and a cone voltage of 5 V. The collision energy and precursor to production transition m/z for each analyte are found in Table 1. The data acquisition was performed in multiple reaction monitoring (MRM) mode.
# Subsequently, a volume of 400 μL of acetonitrile was added to a 100 μL plasma sample. The resulting mixture was subjected to vortexing for 1 minute and centrifuged at a force of 21367 g for 10 minutes at a temperature of 4°C. The resulting supernatant was subjected to evaporation, followed by reconstitution in a volume of 100 μL of 10% acetonitrile. This reconstituted solution was then centrifuged at a force of 21367 g, and subsequently, a volume of 4 μL of the resulting supernatant was used for UPLC-ESI-MS/MS analysis.
# The study used six Bama miniature pigs (70 days old, weighing 20 ± 2 kg) obtained from the Experimental Animal Center, Shandong Lvdu Bio-Sciences and Technology Co., Ltd. (Binzhou, China). The pigs were housed under controlled conditions with a temperature of 25 ± 1°C, relative humidity of 65% ± 10%, and a 12/12 h light/dark cycle. The pigs were provided with standard pig feed and water ad libitum, in accordance with the guidelines outlined in the National Institutes of Health Guide for Care and Use of Laboratory Animals. […] Blood samples (0.5 mL each) were collected from the jugular vein of each pig into heparinized tubes at specific time intervals (0.5 h, 1.0 h, 4.0 h, 8.0 h, 12.0 h, 15.0 h, and 24.0 h) following intragastric administration. The blood sample was promptly subjected to centrifugation at a force of 3400 × g for 10 minutes. The resulting supernatant plasma was collected and preserved at a temperature of −80°C until subsequent preparation for LC-MS analysis. The concentration-time data of the analytes were evaluated using either noncompartmental or compartmental methods with the aid of the PKSolver 2.0 software package, and subsequently, pharmacokinetic parameters were computed. The outcomes are presented as the arithmetic mean accompanied by the standard deviation (SD).
# [1] = design: method as in PMID 28871816; settings: rats, cited from earlier work
# [2] = design: method as in PMID 10891884; settings: beagle dogs, oral 300 mg of palmatine; cited from earlier work
# [3] = design: method as in PMID 34331552; settings: rats, fruit of Tetradium ruticarpum and licorice extracts together; cited from earlier work
# [4] = design: method as in PMID 33217008; settings: rats, oral 10 mg/kg obacunone; cited from earlier work
# [5] = Bama miniature, pig, in vivo, po
# [6] = Bama miniature, pig, in vivo, po, C max
# [7] = pig plasma, single oral BTWD 1.0 mL/kg, n = 6, mean ± SD
# [8] = pig plasma, oral BTWD 1.0 mL/kg
# [9] = Bama miniature, pig, plasma, po, 1 mL/kg
# [10] = Bama miniature, pig, plasma, po, 1 mL/kg, C max, pig plasma, single oral BTWD 1.0 mL/kg, n = 6, mean ± SD
# [11] = Bama miniature, pig, in vivo, po, 1 mL/kg
smiles,measurement,setting,value
"COc1cc2ccc(=O)oc2c(O[C@@H]2O[C@H](CO)[C@@H](O)[C@H](O)[C@H]2O)c1O [Fraxin, fraxin]",AUC(0-inf),in vivo; [5],53.5 ± 2.78 ng·h/mL
same,AUC(0-t),in vivo; [5],53.2 ± 2.7 ng·h/mL
same,MRT,in vivo; [5],1.07 ± 0.04 h
same,Tmax,in vivo; [5],0.53 ± 0.02 h
same,half-life,in vivo; [5],0.36 ± 0.01 h
same,Cmax,in vivo; [6],36.8 ± 0.48 ng/mL
same,absorption and elimination (in words),"in vivo; pig plasma, oral BTWD",rapidly absorbed and eliminated from the plasma
same,CL/F,in vivo; [7],36.38 ± 1.84 mL/h
COc1cc2c(cc1OC)-c1cc3ccc(OC)c(OC)c3c[n+]1CC2 [palmatine],concentration at 12 h,in vivo; [5],5.79 ng/mL
same,plasma concentration (in words),"in vivo; pig, in vivo, po",below the threshold required for the analysis of PK behavior
same,Cmax,[1]; oral Coptis root granules,2.14 ± 0.68 ng/mL
same,Tmax,[1]; oral Coptis root granules,0.36 ± 0.074 h
same,Cmax,[1]; oral Shuanghua Baihe tablets,2.50 ± 0.43 ng/mL
same,Tmax,[1]; oral Shuanghua Baihe tablets,3.22 ± 0.81 h
same,Cmax,[2],8 ng/mL
same,Tmax,[2],5 h
"COc1ccc2cc3[n+](cc2c1OC)CCc1cc2c(cc1-3)OCO2 [Berberine, berberine]",AUC(0-inf),in vivo; [5],209 ± 13.6 ng·h/mL
same,AUC(0-t),in vivo; [5],202 ± 12.7 ng·h/mL
same,MRT,in vivo; [5],11.07 ± 0.03 h
same,Tmax,in vivo; [5],12 h
same,half-life,in vivo; [5],3.14 ± 0.13 h
same,Cmax,in vivo; [6],28.4 ± 0.83 ng/mL
same,Cmax (in words),"in vivo; pig plasma, oral BTWD",low Cmax
same,concentration-time profile (shape),in vivo; [8],biphasic patterns
same,CL/F,in vivo; [7],14.82 ± 0.93 mL/h
"COc1cc2c(cc1O)-c1cc3ccc(OC)c(OC)c3c[n+]1CC2 [Columbamine, columbamine]",AUC(0-inf),in vivo; [9],31 ± 1.36 ng·h/mL
same,AUC(0-t),in vivo; [9],28.4 ± 1.31 ng·h/mL
same,MRT,in vivo; [9],12.5 ± 2.8 h
same,Tmax,in vivo; [9],12 h
same,half-life,in vivo; [9],6.74 ± 5.08 h
same,Cmax,in vivo; [10],3.8 ± 0.08 ng/mL
same,Cmax (in words),"in vivo; pig plasma, oral BTWD",low Cmax
same,concentration-time profile (shape),in vivo; [8],biphasic patterns
same,plasma concentrations,"in vivo; pig plasma, oral BTWD 1.0 mL/kg, upper bound stated in text",below 10.0 ng/mL
same,CL/F,in vivo; [7],17.54 ± 0.76 mL/h
"O=c1ccc2cc(O[C@@H]3O[C@H](CO)[C@@H](O)[C@H](O)[C@H]3O)c(O)cc2o1 [Esculin, esculin]",AUC(0-inf),in vivo; [11],876 ± 124 ng·h/mL
same,AUC(0-t),in vivo; [11],531 ± 52.8 ng·h/mL
same,Cmax,in vivo; [11],66.4 ± 1.91 ng/mL
same,MRT,in vivo; [11],25.1 ± 1.91 h
same,Tmax,in vivo; [11],1 h
same,half-life,in vivo; [11],16.6 ± 1.48 h
same,concentration-time profile (shape),in vivo; [8],biphasic patterns
same,CL/F,in vivo; [7],3.25 ± 0.43 mL/h
"O=c1ccc2cc(O)c(O)cc2o1 [Esculetin, esculetin]",AUC(0-inf),in vivo; [9],994 ± 27.8 ng·h/mL
same,AUC(0-t),in vivo; [9],980 ± 26.4 ng·h/mL
same,MRT,in vivo; [9],8.97 ± 0.08 h
same,Tmax,in vivo; [9],4 h
same,half-life,in vivo; [9],2.91 ± 0.08 h
same,Cmax,in vivo; [10],78.1 ± 1.68 ng/mL
same,concentration-time profile (shape),in vivo; [8],biphasic patterns
same,C max,in vivo; [7],78.17 ± 1.68 ng/mL
same,CL/F,in vivo; [7],0.76 ± 0.02 mL/h
"CC1(C)OC(=O)C=C[C@]2(C)[C@H]3CC[C@@]4(C)[C@H](c5ccoc5)OC(=O)[C@H]5O[C@]54[C@]3(C)C(=O)C[C@@H]12 [Obacunone, obacunone]",AUC0− inf,in vivo; [5],1146.51 ± 7.38 ng·h/mL
same,AUC(0-t),in vivo; [5],111 ± 3.9 ng·h/mL
same,MRT,in vivo; [5],17.4 ± 3 h
same,Tmax,in vivo; [5],3.49 ± 0.07 h
same,half-life,in vivo; [5],0.88 ± 0.15 h
same,Cmax,in vivo; [6],7.39 ± 0.71 ng/mL
same,CL/F,"in vivo; pig, in vivo, po",0.37 ± 0.02 mL/h
same,Cmax (in words),"in vivo; pig, in vivo, po",low Cmax
same,MRT,[3],4.90 ± 2.60 h
same,Tmax,[3],1.67 ± 0.29 h
same,MRT,[4],4.30 ± 0.16 h
same,Tmax,[4],1 to 2 h
"c1c2c(cc3c1OCO3)-c1cc3ccc4c(c3c[n+]1CC2)OCO4 [Coptisine chloride, coptisine chloride]",AUC(0-inf),in vivo; [5],69.8 ± 1.42 ng·h/mL
same,AUC(0-t),in vivo; [5],59.88 ± 0.15 ng·h/mL
same,MRT,in vivo; [5],14.3 ± 0.31 h
same,Tmax,in vivo; [5],12 h
same,half-life,in vivo; [5],5.7 ± 0.33 h
same,plasma concentrations,in vivo; [5],below 10.0 ng/mL
same,Cmax,in vivo; [6],5.9 ± 0.15 ng/mL
same,CL/F,"in vivo; pig, in vivo, po",6.56 ± 0.14 mL/h
same,Cmax (in words),"in vivo; pig, in vivo, po",low Cmax
same,concentration-time profile (shape),"in vivo; pig, in vivo, po",biphasic patterns
"COc1cc2c(cc1O)C[C@H]1c3cc(O)c(OC)cc3CC[N@@+]1(C)C2 [Phellodendrine, phellodendrine]",AUC0− inf,"in vivo; pig, in vivo, po",73.39 ± 2.80 ng·h/mL
same,AUC0−t,"in vivo; pig, in vivo, po",69.72 ± 2.62 ng·h/mL
same,C max,"in vivo; pig, in vivo, po",8.18 ± 0.21 ng/mL
same,CL/F,"in vivo; pig, in vivo, po",12.41 ± 0.47 mL/h
same,Cmax (in words),"in vivo; pig, in vivo, po",low Cmax
same,MRT,"in vivo; pig, in vivo, po",11.39 ± 0.14 h
same,T max,"in vivo; pig, in vivo, po",12.00 h
same,concentration-time profile (shape),"in vivo; pig, in vivo, po",biphasic patterns
same,plasma concentrations,"in vivo; pig, in vivo, po",below 10.0 ng/mL
same,t 1/2,"in vivo; pig, in vivo, po",3.81 ± 0.10 h
"COc1cc2ccc(=O)oc2c(O)c1O [Fraxetin, fraxetin]",AUC(0-inf),in vivo; [5],159 ± 9.33 ng·h/mL
same,AUC(0-t),in vivo; [5],159 ± 9.33 ng·h/mL
same,MRT,in vivo; [5],0.98 ± 0.01 h
same,Tmax,in vivo; [5],0.49 ± 0.01 h
same,half-life,in vivo; [5],0.33 h
same,Cmax,in vivo; [6],119 ± 6.14 ng/mL
same,absorption and elimination (in words),"in vivo; pig plasma, oral BTWD",rapidly absorbed and eliminated from the plasma
same,concentration-time profile (shape),in vivo; [8],biphasic patterns
same,CL/F,in vivo; [7],9.72 ± 0.56 mL/h
"C=C(C)[C@@H]1CC[C@]2(C(=O)O[C@@H]3O[C@H](CO[C@@H]4O[C@H](CO)[C@@H](O[C@@H]5O[C@@H](C)[C@H](O)[C@@H](O)[C@H]5O)[C@H](O)[C@H]4O)[C@@H](O)[C@H](O)[C@H]3O)CC[C@]3(C)[C@H](CC[C@@H]4[C@@]5(C)CC[C@H](O[C@@H]6OC[C@H](O)[C@H](O)[C@H]6O[C@@H]6O[C@@H](C)[C@H](O)[C@@H](O)[C@H]6O)[C@@](C)(CO)[C@@H]5CC[C@]43C)[C@@H]12 [Pulchinenoside B4, pulchinenoside B4]",absorption and elimination (in words),"in vivo; pig plasma, oral BTWD",rapidly absorbed and eliminated from the plasma
same,concentration-time profile (shape),in vivo; [8],biphasic patterns
same,AUC0− inf,in vivo; [7],2580.65 ± 89.09 ng·h/mL
same,AUC0−t,in vivo; [7],2525.63 ± 87.16 ng·h/mL
same,C max,in vivo; [7],276.70 ± 10.54 ng/mL
same,CL/F,in vivo; [7],1.36 ± 0.05 mL/h
same,MRT,in vivo; [7],9.57 ± 0.14 h
same,T max,in vivo; [7],1.00 h
same,t 1/2,in vivo; [7],3.27 ± 0.17 h
